Reference: US4362725A, “Cephalosporins” (Dr. Karl Thomae Gesellschaft mit beschrankter Haftung, priority 1980, dated 1982)
In brackets after ≈: the same amount, converted by molar mass.

Columns and labels:
[1] = test system: Proteus mirabilis BC 17; test: In vitro serial dilution test in the microtiter system (MIC), Proteus mirabilis; type: cell-based; conditions: BC17, 18 to 20 h at 37° C., read-out: MIC Prot. mir. BC 17
Description: (§1) The tests were performed using the serial dilution test in the microtiter system. The effect of the test compound on bacteristasis was examined in a liquid medium at the following concentrations: >64, 64 32, 16, 8, 4, 2, 1, 0.5, 0.25, 0.125, 0.06, 0.03 and 0.015 μgm/ml. The nutrient medium consisted of 10 gm of peptone, 8 gm of meat extract oxoid, 3 gm of sodium chloride, and 2 gm of sec. sodium phosphate diluted with distilled water to […] (pH 7.2-7.4). Only in the test against streptococci 1% of glucose was added. The age of the primary cultures was approximately 20 hours. The standardization of the bacteria suspension was effected using a photometer according to the method of Eppendorf (test tube .phi.-mm, filter 546 nm), using for comparison a barium sulfate suspension formed by the addition of 3.0 ml of 1% barium chloride solution to 97 ml of 1% sulfuric acid. After standardization, the test microorganisms were further diluted to a concentration of 1:1500, using a sodium chloride solution.
(§2) 16 mgm of the particular test compound were put into a 10 ml measuring flask, and the flask was subsequently filled to the mark with solvent. The further dilution series was standardized with distilled water or the appropriate solvent.
(§3) The cavities of the microtiter plates were filled with 0.2 ml of nutrient medium. 0.01 ml of the appropriate test compound solution was then added, followed by inoculation with 0.01 ml (1 drop) of the standardized bacteria suspension. The bacteria were incubated at 37° C. for 18 to 20 hours. Control tests using only the solvent were carried out simultaneously.
(§4) The readings were made macroscopically to determine the minimum inhibitory concentration (the lowest still bacteriostatically effective concentration).
(§5) The following test organisms were used:
(§6) Staphylococcus aureus SG 511, Escherichia coli ATCC11 775, Pseudomonas aeruginosa hamburgensis and Pseudomonas aeruginosa BC 19, Serratia marcescens ATCC 13 880, Klebsiella pneumoniae ATCC 10 031 and BC 6, Proteus mirabilis BC 17, Proteus rettgeri BC 7, Enterobacter Cloaceae ATCC 13047 and E. coli R+TEM (β-lactamase carrier).

[2] = test system: Staphylococcus aureus SG 511; test: In vitro serial dilution test in the microtiter system (MIC), S. aureus; type: cell-based; conditions: SG511, 18 to 20 h at 37° C.
Description: as §1, §2, §3, §4, §5, §6

[3] = test system: Enterobacter Cloaceae ATCC 13047; test: In vitro serial dilution test in the microtiter system (MIC), Enterobacter; type: cell-based; conditions: ATCC13047, 18 to 20 h at 37° C., read-out: MIC Eb. cloaceae
Description: as §1, §2, §3, §4, §5, §6

[4] = test system: Klebsiella pneumoniae BC 6; test: In vitro serial dilution test in the microtiter system (MIC), Klebsiella BC 6; type: cell-based; conditions: BC6, 18 to 20 h at 37° C., read-out: MIC Klebs. pneum. BC 6
Description: as §1, §2, §3, §4, §5, §6

[5] = test system: Klebsiella pneumoniae ATCC 10 031; test: In vitro serial dilution test in the microtiter system (MIC), Klebsiella ATCC 10031; type: cell-based; conditions: 18 to 20 h at 37° C., read-out: MIC Klebs. pneum. ATCC 10031
Description: as §1, §2, §3, §4, §5, §6

[6] = test system: Pseudomonas aeruginosa BC 19; test: In vitro serial dilution test in the microtiter system (MIC), Pseudomonas BC 19; type: cell-based; conditions: BC19, 18 to 20 h at 37° C., read-out: MIC Pseud. aerug. BC 19
Description: as §1, §2, §3, §4, §5, §6

[7] = test system: E. coli R+TEM (β-lactamase carrier); test: In vitro serial dilution test in the microtiter system (MIC), E. coli R+TEM; type: cell-based; conditions: Escherichia coli, read-out: MIC E. coli R + TEM
Description: as §1, §2, §3, §4, §5, §6

[8] = test system: Proteus rettgeri BC 7; test: In vitro serial dilution test in the microtiter system (MIC), Proteus rettgeri; type: cell-based; conditions: Providencia rettgeri, BC7; 18 to 20 h at 37° C.; read-out: MIC Prot. rettg. BC 7
Description: as §1, §2, §3, §4, §5, §6

[9] = test system: Serratia marcescens ATCC 13 880; test: In vitro serial dilution test in the microtiter system (MIC), Serratia; type: cell-based; conditions: 18 to 20 h at 37° C., read-out: MIC Ser. marcesc. ATCC 13880
Description: as §1, §2, §3, §4, §5, §6

[10] = test system: Escherichia coli ATCC11 775; test: In vitro serial dilution test in the microtiter system (MIC), E. coli; type: cell-based; conditions: 18 to 20 h at 37° C., read-out: MIC E. coli ATCC 11775
Description: as §1, §2, §3, §4, §5, §6

[11] = test system: Pseudomonas aeruginosa hamburgensis; test: In vitro serial dilution test in the microtiter system (MIC), Pseudomonas Hbg.; type: cell-based; conditions: 18 to 20 h at 37° C., read-out: MIC Pseud. aerug. Hbg.
Description: as §1, §2, §3, §4, §5, §6

[12] = test system: E. coli ATCC 11 775; test: In vivo activity in mice, experimental E. coli infection; set-up: species or system mice (female, NMRI strain); conditions: Escherichia coli, ATCC11, sc, 168 h; s.c., once 1 hour after i.p. E. coli infection; 7 days observation; read-out: ED50 (dose at which 50% of the animals survive)
Description: (§7) Several of the compounds of this invention were tested in vivo against experimental infections in mice. E. coli ATCC 11 775 and Pseudomonas aeruginosa BC 19 were used as the pathogenic bacteria. An interaperitoneal infection was induced with 0.2 ml of a bacterial suspension (containing 5% of mucin). This corresponds to approximately 1.4×10^6 E. coli germs or to 1.3×10^6 pseudomonas germs per mouse. Female mice of the NMRI strain were divided up into groups of 10 animals of which 2 groups remained untreated while the remaining groups were subcutaneously administered various doses of the particular cephalosporins according to the invention for the purpose of determining the ED50 (dose at which 50% of the animals survive). In the case of the E. coli infection, the treatment was applied once (1 hour after infection) while the pseudomonas infection was treated 3 times (1, 3 and 5 hours after infection).
(§8) In both cases, the observation period was 7 days. The results of these tests, carried out with typical representatives of the cephalosporins according to the invention, are shown in Table 3 below.

[13] = test system: Pseudomonas aeruginosa BC 19; test: In vivo activity in mice, experimental Pseudomonas infection; set-up: species or system mice (female, NMRI strain); conditions: BC19, sc, 168 h, per dose, s.c., 3 times (1, 3 and 5 hours after i.p. Pseudomonas infection), 7 days observation, read-out: ED50 (dose at which 50% of the animals survive)
Description: as §7, §8

| Compound | MIC [1] [mg/L] | MIC [2] [mg/L] | MIC [3] [mg/L] | MIC [4] [mg/L] | MIC [5] [mg/L] | MIC [6] [mg/L] | MIC [7] [mg/L] | MIC [8] [mg/L] | MIC [9] [mg/L] | MIC [10] [mg/L] | MIC [11] [mg/L] | ED50 [12] [mg/kg] | ED50 [13] [mg/kg] |
| --- | --- | --- | --- | --- | --- | --- | --- | --- | --- | --- | --- | --- | --- |
| NS(=O)(=O)c1ccc(Nc2ncc(NC(=O)NC(C(=O)N[C@@H]3C(=O)N4C(C(=O)O)=C(CSc5nnnn5CC(=O)O)CS[C@H]34)c3ccc(O)cc3)c(O)n2)cc1 (stereo partly drawn) [Compound 5] | 0.12 (≈ 0.145 µM) | 4 (≈ 4.83 µM) | 2 (≈ 2.41 µM) | 0.5 (≈ 0.603 µM) | 0.5 (≈ 0.603 µM) | 8 (≈ 9.65 µM) | 32 | 0.25 (≈ 0.302 µM) | 0.5 (≈ 0.603 µM) | 0.5 (≈ 0.603 µM) | 8 (≈ 9.65 µM) | – | – |
| CS(=O)(=O)NCCn1nnnc1SCC1=C(C(=O)O)N2C(=O)[C@@H](NC(=O)C(NC(=O)Nc3cnc(Nc4ccc(S(N)(=O)=O)cc4)nc3O)c3ccc(O)cc3)[C@H]2SC1 (stereo partly drawn) [Compound 36] | 0.06 (≈ 0.0673 µM) | 2 (≈ 2.24 µM) | 0.12 (≈ 0.135 µM) | 0.12 (≈ 0.135 µM) | 0.12 (≈ 0.135 µM) | 2 (≈ 2.24 µM) | 8 | 0.25 (≈ 0.28 µM) | 0.25 (≈ 0.28 µM) | 0.03 (≈ 0.0336 µM) | 4 (≈ 4.48 µM) | – | – |
| Cn1c(SCC2=C(C(=O)O)N3C(=O)[C@@H](NC(=O)C(NC(=O)Nc4cnc(Nc5ccc(S(N)(=O)=O)cc5)nc4O)c4ccc(O)cc4)[C@H]3SC2)nnc(O)c1=O (stereo partly drawn) [Compound 16] | 0.12 (≈ 0.145 µM) | 0.12 (≈ 0.145 µM) | 0.25 (≈ 0.302 µM) | 0.25 (≈ 0.302 µM) | 0.12 (≈ 0.145 µM) | 4 (≈ 4.83 µM) | 4 | 0.25 (≈ 0.302 µM) | 0.25 (≈ 0.302 µM) | 0.12 (≈ 0.145 µM) | 8 (≈ 9.66 µM) | ~0.8 | 10 to 20 |
| CC(=O)NCCn1nnnc1SCC1=C(C(=O)O)N2C(=O)[C@@H](NC(=O)C(NC(=O)Nc3cnc(Nc4ccc(S(N)(=O)=O)cc4)nc3O)c3ccc(O)cc3)[C@H]2SC1 (stereo partly drawn) [Compound 37] | 0.06 (≈ 0.0701 µM) | 2 (≈ 2.34 µM) | 0.12 (≈ 0.14 µM) | 0.12 (≈ 0.14 µM) | 0.12 (≈ 0.14 µM) | 4 (≈ 4.67 µM) | 8 | 0.25 (≈ 0.292 µM) | 0.12 (≈ 0.14 µM) | 0.12 (≈ 0.14 µM) | 8 (≈ 9.35 µM) | – | – |
| Cc1nnc(SCC2=C(C(=O)O)N3C(=O)[C@@H](NC(=O)Cn4cnnn4)[C@H]3SC2)s1 [Cephazolin, reference compound] | 4 (≈ 8.8 µM) | 0.06 (≈ 0.132 µM) | > 100 | 2 (≈ 4.4 µM) | 1 (≈ 2.2 µM) | > 100 | 4 | > 100 | > 100 | 4 (≈ 8.8 µM) | > 100 | – | – |
